Experimental data taken from ChEMBL document CHEMBL1201862, “PubChem BioAssay data set” (2004).
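How tested: cells in 96-well plates exposed to compound for 48 hours at five concentrations. GI50 is the concentration that inhibits growth by half.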 Active and inactive are the calls of the source. No stated cut-off is given here; in the data, active = GI50 up to about 1.1 µM and inactive = higher.

How the values were obtained:
Assay in all cases: DTP human tumour cell line panel, 48 h
SNB-19 = test system: SNB-19
SN12C = test system: SN12C
UACC-257 = test system: UACC-257
SK-MEL-28 = test system: SK-MEL-28
PC-3 = test system: PC-3
KM12 = test system: KM12
M14 = test system: M14
HT-29 = test system: HT-29
UACC-62 = test system: UACC-62
HCT-116 = test system: HCT-116
OVCAR-3 = test system: OVCAR-3
DU-145 = test system: DU-145
SK-MEL-2 = test system: SK-MEL-2
TK-10 = test system: TK-10
MDA-N = test system: MDA-N
A498 = test system: A498
SF-539 = test system: SF-539
T47D = test system: T47D
786-0 = test system: 786-0

Structure (SMILES)	GI50 (SNB-19)	GI50 (SN12C)	GI50 (UACC-257)	GI50 (SK-MEL-28)	GI50 (PC-3)	GI50 (KM12)	GI50 (M14)	GI50 (HT-29)	GI50 (UACC-62)	GI50 (HCT-116)	GI50 (OVCAR-3)	GI50 (DU-145)	GI50 (SK-MEL-2)	GI50 (TK-10)	GI50 (MDA-N)	GI50 (A498)	GI50 (SF-539)	GI50 (T47D)	GI50 (786-0)
CCOC(=O)NN(C(=O)OCC)C(=C(c1ccccc1)N1CCOCC1)N(NC(=O)OCC)C(=O)OCC	> 100 µM (inactive)	> 100 µM (inactive)	> 100 µM (inactive)	> 100 µM (inactive)	> 100 µM (inactive)	> 100 µM (inactive)	> 100 µM (inactive)	> 100 µM (inactive)	> 100 µM (inactive)	> 100 µM (inactive)	> 100 µM (inactive)	> 100 µM (inactive)	> 100 µM (inactive)	> 100 µM (inactive)	> 100 µM (inactive)	> 100 µM (inactive)	> 100 µM (inactive)	> 100 µM (inactive)	> 100 µM (inactive)
FC(F)(F)c1ccc2nc3n(c2c1)C(c1c(Cl)cccc1Cl)SC3 (stereo not given)	18.6 µM (inactive)	18.1 µM (inactive)	14.1 µM (inactive)	14.9 µM (inactive)	14.9 µM (inactive)	14.6 µM (inactive)	16 µM (inactive)	15.4 µM (inactive)	14.5 µM (inactive)	10.5 µM (inactive)	15.6 µM (inactive)	17 µM (inactive)	18.2 µM (inactive)	18.3 µM (inactive)	11.7 µM (inactive)	19.8 µM (inactive)	15.7 µM (inactive)	11.2 µM (inactive)	14.7 µM (inactive)
O=C(/C=C/c1ccsc1)c1ccco1	15.5 µM (inactive)	14.6 µM (inactive)	17.3 µM (inactive)	12.8 µM (inactive)	14.6 µM (inactive)	4.8 µM (inactive)	11.2 µM (inactive)	9.95 µM (inactive)	14.6 µM (inactive)	5.97 µM (inactive)	14 µM (inactive)	13.6 µM (inactive)	14.1 µM (inactive)	20 µM (inactive)	12.1 µM (inactive)	5.41 µM (inactive)	14.4 µM (inactive)	11.8 µM (inactive)	12.1 µM (inactive)
Nc1ccc2c(c1)nc1n2C(c2c(F)cccc2F)SC1 (stereo not given)	> 100 µM (inactive)	> 100 µM (inactive)	> 100 µM (inactive)	> 100 µM (inactive)	> 100 µM (inactive)	> 100 µM (inactive)	> 100 µM (inactive)	> 100 µM (inactive)	> 100 µM (inactive)	> 100 µM (inactive)	> 100 µM (inactive)	> 100 µM (inactive)	> 100 µM (inactive)	> 100 µM (inactive)	> 100 µM (inactive)	> 100 µM (inactive)	> 100 µM (inactive)	76.4 µM (inactive)	> 100 µM (inactive)
Cc1cc(C)n(CN(Cn2nc(C)cc2C)c2ccccc2)n1	45.5 µM (inactive)	35.1 µM (inactive)	22.3 µM (inactive)	19.6 µM (inactive)	27.8 µM (inactive)	16 µM (inactive)	16.3 µM (inactive)	17.6 µM (inactive)	10.6 µM (inactive)	19.8 µM (inactive)	30.5 µM (inactive)	30.3 µM (inactive)	19 µM (inactive)	46.1 µM (inactive)	14.5 µM (inactive)	> 100 µM (inactive)	19.4 µM (inactive)	23.7 µM (inactive)	21.4 µM (inactive)
N/C(=N\Nc1ccc(C(=O)O)cc1)c1cnccn1	> 100 µM (inactive)	> 100 µM (inactive)	> 100 µM (inactive)	> 100 µM (inactive)	> 100 µM (inactive)	> 100 µM (inactive)	> 100 µM (inactive)	> 100 µM (inactive)	> 100 µM (inactive)	> 100 µM (inactive)	> 100 µM (inactive)	> 100 µM (inactive)	> 100 µM (inactive)	> 100 µM (inactive)	> 100 µM (inactive)	> 100 µM (inactive)	> 100 µM (inactive)	> 100 µM (inactive)	> 100 µM (inactive)
COc1cc(C2c3[nH]c4ccccc4c3[C@@H](Nc3ccc(C#N)cc3)[C@H]3COC(=O)N23)cc(OC)c1O (stereo not given in full)	0.235 µM (active)	0.186 µM (active)	0.548 µM (active)	0.395 µM (active)	0.462 µM (active)	0.243 µM (active)	0.344 µM (active)	0.3 µM (active)	0.114 µM (active)	0.233 µM (active)	0.441 µM (active)	0.252 µM (active)	0.356 µM (active)	0.335 µM (active)	0.376 µM (active)	0.0516 µM (active)	0.0618 µM (active)	0.345 µM (active)	0.0908 µM (active)
Cc1ccc2nc(C(C)C)c(=O)[nH]c2c1	> 100 µM (inactive)	> 100 µM (inactive)	> 100 µM (inactive)	> 100 µM (inactive)	19.9 µM (inactive)	31.8 µM (inactive)	> 100 µM (inactive)	> 100 µM (inactive)	> 100 µM (inactive)	> 100 µM (inactive)	18.8 µM (inactive)	> 100 µM (inactive)	15 µM (inactive)	> 100 µM (inactive)	> 100 µM (inactive)	> 100 µM (inactive)	85.1 µM (inactive)	> 100 µM (inactive)	52.7 µM (inactive)
COC(=O)C(CCC1C=CCC1)/N=C\c1ccccc1 (stereo not given)	79.1 µM (inactive)	60.4 µM (inactive)	38.2 µM (inactive)	> 100 µM (inactive)	35.6 µM (inactive)	45 µM (inactive)	46.2 µM (inactive)	50 µM (inactive)	74.8 µM (inactive)	31.3 µM (inactive)	66.5 µM (inactive)	97.9 µM (inactive)	37.5 µM (inactive)	99.1 µM (inactive)	49.9 µM (inactive)	81.5 µM (inactive)	> 100 µM (inactive)	47.4 µM (inactive)	66.2 µM (inactive)
CC(=O)O[C@H]1CC[C@@]2(C)C(=CC[C@H]3[C@@H]4CC[C@H](c5cc(C(F)(F)F)n(C(C)=O)n5)[C@@]4(C)CC[C@@H]32)C1	11 µM (inactive)	7.57 µM (inactive)	5.52 µM (inactive)	13.6 µM (inactive)	4.47 µM (inactive)	8.41 µM (inactive)	8.51 µM (inactive)	4.62 µM (inactive)	12 µM (inactive)	3.88 µM (inactive)	5.77 µM (inactive)	11.4 µM (inactive)	6.93 µM (inactive)	5.22 µM (inactive)	11.3 µM (inactive)	10.6 µM (inactive)	6.47 µM (inactive)	6.41 µM (inactive)	5.38 µM (inactive)
Cc1ccc(S(=O)(=O)N/N=C2\C=CC3(CC2)C(=O)N(I)c2ccccc23)cc1 (stereo not given)	> 100 µM (inactive)	> 100 µM (inactive)	> 100 µM (inactive)	> 100 µM (inactive)	63.1 µM (inactive)	82.2 µM (inactive)	> 100 µM (inactive)	> 100 µM (inactive)	> 100 µM (inactive)	87.5 µM (inactive)	> 100 µM (inactive)	> 10 µM (inactive)	48.1 µM (inactive)	> 100 µM (inactive)	83 µM (inactive)	> 100 µM (inactive)	11 µM (inactive)	> 100 µM (inactive)	> 100 µM (inactive)
O=c1[nH]c(Cc2ccccc2)nc2c1sc1nc3ccccc3n12	> 58.3 µM (inactive)	> 100 µM (inactive)	> 100 µM (inactive)	> 100 µM (inactive)	> 100 µM (inactive)	> 100 µM (inactive)	> 100 µM (inactive)	> 100 µM (inactive)	> 100 µM (inactive)	> 100 µM (inactive)	> 100 µM (inactive)	> 100 µM (inactive)	> 100 µM (inactive)	> 100 µM (inactive)	> 100 µM (inactive)	> 100 µM (inactive)	> 100 µM (inactive)	60.5 µM (inactive)	> 100 µM (inactive)
CC(C)OP(=O)(OC(C)C)C(C(C)C)N(C)/C(N)=N\C1=NC(C(F)(F)F)(C(F)(F)F)N=C(C(C(F)(F)F)C(F)(F)F)O1 (stereo not given)	11.9 µM (inactive)	3.15 µM (inactive)	3.05 µM (inactive)	3.18 µM (inactive)	2.56 µM (inactive)	3.4 µM (inactive)	1.41 µM (inactive)	2.46 µM (inactive)	2.01 µM (inactive)	2.31 µM (inactive)	3.27 µM (inactive)	6.9 µM (inactive)	9.44 µM (inactive)	3.61 µM (inactive)	2.14 µM (inactive)	5.2 µM (inactive)	3.75 µM (inactive)	3.01 µM (inactive)	3.7 µM (inactive)
CCOC(=O)c1c2c(n(C)c1-c1ccccc1)C(=O)C(C)=CC2=O	13.5 µM (inactive)	7.69 µM (inactive)	2.61 µM (inactive)	13.9 µM (inactive)	11.4 µM (inactive)	6.04 µM (inactive)	3.66 µM (inactive)	5.79 µM (inactive)	10.9 µM (inactive)	3.6 µM (inactive)	2.86 µM (inactive)	17.5 µM (inactive)	13.6 µM (inactive)	8.43 µM (inactive)	2 µM (inactive)	18.2 µM (inactive)	4.05 µM (inactive)	3.13 µM (inactive)	15.2 µM (inactive)
O=C1c2cccnc2-c2nccc3c2c1nc1ccc(Br)cc13	0.136 µM (active)	0.0482 µM (active)	0.0536 µM (active)	0.0252 µM (active)	0.0426 µM (active)	0.0656 µM (active)	0.0243 µM (active)	0.282 µM (active)	0.0569 µM (active)	< 0.0136 µM (active)	0.0207 µM (active)	0.0225 µM (active)	0.0726 µM (active)	0.273 µM (active)	0.109 µM (active)	0.0853 µM (active)	0.0601 µM (active)	0.0789 µM (active)	0.0248 µM (active)
